Experimental data from PubChem BioAssay (NCI).
“And” between values parts separate entries of the source, which are not always exact repeats. Identical values can stand only once.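 Protocol summary: plate cells (96-well), add compound at 5 concentrations, incubate 48 h, interpolate endpoints linearly. GI50 is the concentration that inhibits growth by half. TGI: total growth inhibition.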

What was measured:
Assay in all cases: growth of human tumour cells (NCI), 48 h
CCRF-CEM leukemia = tested on: CCRF-CEM leukemia
UO-31 renal = tested on: UO-31 renal
HOP-92 NSCLC = tested on: HOP-92 NSCLC
TK-10 renal = tested on: TK-10 renal
M19-MEL melanoma = tested on: M19-MEL melanoma
HL-60(TB) leukemia = tested on: HL-60(TB) leukemia
KM20L2 colon = tested on: KM20L2 colon
A498 renal = tested on: A498 renal
786-0 renal = tested on: 786-0 renal
SF-268 CNS = tested on: SF-268 CNS
DMS 273 small cell lung = tested on: DMS 273 small cell lung

| SMILES | TGI (CCRF-CEM leukemia) | TGI (UO-31 renal) | TGI (HOP-92 NSCLC) | TGI (TK-10 renal) | TGI (M19-MEL melanoma) | TGI (HL-60(TB) leukemia) | TGI (KM20L2 colon) | TGI (A498 renal) | TGI (786-0 renal) | TGI (SF-268 CNS) | GI50 (UO-31 renal) | GI50 (TK-10 renal) | GI50 (M19-MEL melanoma) | GI50 (HL-60(TB) leukemia) | GI50 (786-0 renal) | GI50 (CCRF-CEM leukemia) | GI50 (HOP-92 NSCLC) | GI50 (A498 renal) | GI50 (SF-268 CNS) | TGI (DMS 273 small cell lung) |
| --- | --- | --- | --- | --- | --- | --- | --- | --- | --- | --- | --- | --- | --- | --- | --- | --- | --- | --- | --- | --- |
| CC(C)Cc1ccc(C(C)/C=C2\CCC(CN(C)C)C2=O)cc1 (stereo not given) | 23.4 µM | 23.4 µM | 39.1 µM | 18.9 µM | 37.5 µM | 26.7 µM | 51.4 µM | 39.5 µM | 8.13 µM | 25.5 µM | – | – | – | – | – | – | – | – | – | – |
| CC(=O)[CH-]C(=O)c1ccccc1.[C-]#[O+].[C-]#[O+].[Ir] | – | > 100 µM | – | > 100 µM | > 100 µM | > 100 µM | – | – | > 100 µM | – | > 100 µM | > 100 µM | > 100 µM | > 100 µM | > 100 µM | – | – | – | – | – |
| O=C1N[C@@H]2CCCC[C@@H]2C12CCCCC2 | > 100 µM | > 100 µM | – | > 100 µM | > 100 µM | > 100 µM | > 100 µM | > 100 µM | > 100 µM | > 100 µM | – | – | – | – | – | – | – | – | – | – |
| CCCCCCCCCCCCCCNC(=O)Nc1ccc(Cl)c(Cl)c1 | 11.1 µM | – | 8.65 µM | 7.4 µM | – | > 40.1 µM | – | > 26.4 µM | > 23.4 µM | > 100 µM | 1.57 µM | 2.34 µM | – | 2.59 µM | 2.79 µM | 2.5 µM | 2.75 µM | 2.13 µM | 3.72 µM | – |
| COc1cc(OC)c(OC)cc1/C=C/c1nc2ccccc2s1 | > 100 µM | > 100 µM | 56.9 µM | > 100 µM | – | > 100 µM | – | > 100 µM | > 100 µM | > 100 µM | – | – | – | – | – | – | – | – | – | – |
| Cc1noc(NC(=O)Nc2ccccc2F)c1C#N | > 100 µM | 4.42 µM | > 100 µM | > 45.1 µM | – | > 100 µM | – | > 50.9 µM | > 47.1 µM | > 48.9 µM | – | – | – | – | – | – | – | – | – | – |
| CCOC(=O)c1ccc(N=Nc2ccc(N(CCC#N)CCC#N)cc2C)cc1 | > 100 µM | > 100 µM | – | > 100 µM | > 100 µM | > 100 µM | – | > 100 µM | > 100 µM | – | – | – | – | – | – | – | – | – | – | > 100 µM |
| OCCCCC#Cc1ccccc1C#Cc1cccc(C(F)(F)F)c1 | 38.2 µM | 31.6 µM | 36.2 µM | 32.2 µM | – | 59.5 µM | – | 33.1 µM | 34 µM | 42.5 µM | 17.2 µM | 16.9 µM | – | 24.6 µM | 11.1 µM | 20.2 µM | 19.9 µM | 18.2 µM | 19.1 µM | – |
| CC(=O)O[C@H]1CC2C(C3CC[C@H](C(C)CCC(=O)O)[C@]31C)[C@H](OC(C)=O)C[C@@H]1CC3(CC[C@]21C)OOC1(CCC(C)CC1)OO3 (stereo not given in full) | 5.26 µM and 4.09 µM | 7.91 µM and 3 µM | 23.2 µM and 5.95 µM | 33 µM and 9.19 µM | – | 11.2 µM and 4.41 µM | – | 28.6 µM and 29.8 µM | 20.3 µM and 3.81 µM | 22.7 µM and 5.2 µM | – | 18.6 µM and 3.08 µM | – | – | 7.66 µM and 1.81 µM | – | 10.1 µM and 2.34 µM | – | 6.18 µM and 2.11 µM | – |
| O=C(c1cccs1)c1c(C(F)(F)F)n([O-])c2cc(Cl)c(Cl)cc2[n+]1=O | 0.0617 µM | 4.14 µM | 2.85 µM | 2.95 µM | – | 3.53 µM | – | 2.61 µM | 1.91 µM | 2.45 µM | 1.9 µM | 1.55 µM | – | 0.362 µM | 0.756 µM | < 0.0387 µM | 1.41 µM | 1.27 µM | 1.03 µM | – |
| CC(C)[C@@H]1CC[C@]2(CO2)[C@@H]2C(=O)OCC(C(=O)O)=C[C@H]21 | 2.85 µM | 15.9 µM | 0.79 µM | > 93.5 µM | – | 1.7 µM | – | 0.738 µM | > 100 µM | > 52.5 µM | 0.408 µM | 0.686 µM | – | 0.328 µM | 0.358 µM | 0.319 µM | 0.235 µM | 0.203 µM | 0.34 µM | – |
| COc1ccc(C(O)c2cc3c(N)c(C(=O)Nc4cccc5ccccc45)sc3nc2C)cc1 (stereo not given) | > 100 µM | > 75.4 µM | > 27.5 µM | > 100 µM | – | 0.652 µM | – | 0.676 µM | – | > 100 µM | 0.622 µM | – | – | 0.254 µM | 0.499 µM | 0.378 µM | 0.911 µM | 0.2 µM | 0.615 µM | – |
| CCSCC1CC(O)(c2ccccc2)C(c2ccccc2)C(c2ccc(F)cc2)O1 (stereo not given) | 32.1 µM | 6.46 µM | 3.15 µM | 7.28 µM | – | 6.33 µM | – | 3.7 µM | 5.08 µM | 5.45 µM | 1.71 µM | 2.6 µM | – | 1.7 µM | 2.19 µM | 3.15 µM | 1.23 µM | 2.15 µM | 2.15 µM | – |
| ClCCOCCn1cnc2c(Cl)nc(Cl)nc21 | > 100 µM | 26.7 µM | 45.5 µM | 60.6 µM | – | > 100 µM | – | 32.1 µM | 44 µM | 20.3 µM | 13.3 µM | 18.5 µM | – | 4.08 µM | 19.4 µM | 11.7 µM | 18.9 µM | 16.2 µM | 6.82 µM | – |
| CCN(CC)c1ccc2nc3ccc(=[N+](CC)CC)cc-3oc2c1 | > 100 µM | 25 µM | 5.14 µM | 3.57 µM | – | 1.2 µM | – | 17.5 µM | 2.6 µM | 31.2 µM | 2.63 µM | 0.474 µM | – | 0.0247 µM | 1.18 µM | 0.0973 µM | 1.31 µM | 1.01 µM | 0.184 µM | – |
| COCCN(Cc1ccc(F)cc1)c1ccc(CO)c(Cl)c1 | > 100 µM | > 100 µM | 60.1 µM | 1.66 µM | – | > 75.4 µM | – | 0.193 µM | > 82.3 µM | > 100 µM | 15.5 µM | 0.271 µM | – | 27.4 µM | 23.1 µM | 45.2 µM | 8.16 µM | 0.048 µM | 50.6 µM | – |
| CCCCCC(=O)O[C@]1(C(C)=O)CCC2C3CCC4=CC(=O)CC[C@]4(C)C3CC[C@@]21C (stereo not given in full) | 5.83 µM | 10.3 µM | 3.31 µM | > 23.7 µM | – | 4.7 µM | – | 3.88 µM | 8.73 µM | 18 µM | 1.93 µM | 3.46 µM | – | 2.25 µM | 2.71 µM | 2.3 µM | 0.766 µM | 1.3 µM | 3.46 µM | – |
| Fc1ccc(NC(c2ccc(F)cc2)C2CCN(CCCCc3ccccc3)CC2)cc1 (stereo not given) | 9.12 µM | 2.43 µM | 3.41 µM | 5.34 µM | – | 3.54 µM | – | 2.21 µM | 2.84 µM | 3.83 µM | 1.08 µM | 2.07 µM | – | 1.24 µM | 1.47 µM | 3.62 µM | 1.31 µM | 0.671 µM | 1.68 µM | – |
| S=C1SCN(Cc2ccccc2)CN1Cc1ccco1 | 18.5 µM | 18.7 µM | 10.9 µM | 18.8 µM | – | > 100 µM | – | 69.7 µM | 14.4 µM | 17.1 µM | 4.56 µM | 5.79 µM | – | 5.91 µM | 3.5 µM | 2.75 µM | 2.4 µM | 21.6 µM | 3.59 µM | – |
| C=CCN(CC=C)C(=O)c1cc(C)nc2c1c(=O)n(-c1ccccc1)c(=O)n2CCCN1CCN(c2ccccc2OC)CC1 | > 50 µM | > 50 µM | > 50 µM | > 50 µM | – | > 50 µM | – | > 50 µM | > 50 µM | > 50 µM | > 50 µM | > 50 µM | – | > 50 µM | > 50 µM | > 50 µM | 4.57 µM | > 50 µM | > 50 µM | – |
| OC(c1ccccc1Br)(c1ccccc1Br)C(F)(F)F | – | 75.1 µM | – | > 100 µM | 74 µM | – | 52.3 µM | 51.9 µM | 35.5 µM | 43 µM | – | – | – | – | – | – | – | – | – | 40.7 µM |
| Cc1cc(Br)c(NC(=O)c2c(-c3c(Cl)cccc3Cl)noc2C)c(Br)c1 | > 100 µM | > 100 µM | > 100 µM | > 100 µM | – | > 100 µM | – | > 100 µM | > 100 µM | > 100 µM | > 100 µM | > 100 µM | – | > 100 µM | > 100 µM | > 100 µM | > 100 µM | > 100 µM | > 100 µM | – |
| COc1ccc(/C=C2\CCC/C(=C\c3ccc(OC)c(OC)c3)C2=O)cc1OC | > 32.5 µM | > 32.5 µM | > 32.5 µM | 7.33 µM | – | > 32.5 µM | – | > 32.5 µM | > 32.5 µM | > 32.5 µM | 3.63 µM | 1.4 µM | – | 2.25 µM | 5.59 µM | 1.49 µM | 11.3 µM | 3.88 µM | 4.28 µM | – |
| COC12C(COC(=O)NCCO)C3=C(C(=O)C(C)=C(N)C3=O)N1CC1NC12 (stereo not given) | > 264 µM | > 264 µM | 222 µM | > 264 µM | – | > 264 µM | – | 122 µM | > 264 µM | 217 µM | > 264 µM | 66.8 µM | – | – | 41 µM | – | 76.3 µM | – | 32.9 µM | – |
| COc1cc(/C=C/c2csnn2)cc(OC)c1OC | > 100 µM | > 100 µM | > 100 µM | > 100 µM | > 100 µM | > 100 µM | – | – | > 100 µM | > 100 µM | – | – | – | – | – | – | – | – | – | – |
| N#Cc1ccc(Sc2nc3ccccc3[nH]2)cc1 | > 100 µM | > 100 µM | > 100 µM | > 100 µM | > 100 µM | > 100 µM | – | – | > 100 µM | > 100 µM | – | – | – | – | – | – | – | – | – | > 100 µM |
